Experiments:
GSTp mRNA = assay: Northern blot of liver RNA, GSTp mRNA in CAR; format: in vivo, mice; conditions: isopimpinellin 150 mg/kg p.o. 24 h; TC 3 mg/kg i.p. 6 h
GST (DCNB, GST μ) = assay: Liver cytosolic GST activity, DCNB as substrate, after oral dosing of mice; format: in vivo; conditions: C57BL/6 mice, 100 mg/kg p.o. 3 days, vs corn oil
P450 3A11 = assay: Liver microsomal P450 3A activity; format: in vivo, mice; conditions: mouse, in vivo
GSTa1 mRNA = assay: Northern blot of liver RNA, GSTa1 mRNA in CAR; format: in vivo, mice; conditions: isopimpinellin 150 mg/kg p.o. 24 h; TC 3 mg/kg i.p. 6 h
SXR [1] = biological target: T1, SXR (Homo sapiens, UniProt O75469); assay: GAL-SXR reporter assay; format: cell-based
T1 sequence (O75469 146-433 limits assumed): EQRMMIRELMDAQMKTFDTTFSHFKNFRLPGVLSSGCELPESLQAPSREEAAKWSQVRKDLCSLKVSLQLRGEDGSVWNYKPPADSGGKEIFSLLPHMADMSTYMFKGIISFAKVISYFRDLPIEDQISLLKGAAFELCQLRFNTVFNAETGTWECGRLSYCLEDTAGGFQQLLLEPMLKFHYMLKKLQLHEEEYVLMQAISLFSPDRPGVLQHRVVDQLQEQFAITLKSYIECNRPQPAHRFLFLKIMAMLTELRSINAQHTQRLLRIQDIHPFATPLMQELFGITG

P450 = assay: Liver microsomal P450 content after oral dosing of mice; format: in vivo; conditions: C57BL/6 mice, 100 mg/kg p.o. 3 days, vs corn oil
SXR [2] = biological target: SXR (Homo sapiens, UniProt O75469); assay: SXR-DR3 reporter assay; format: cell-based
Target sequence in this assay (O75469 whole entry): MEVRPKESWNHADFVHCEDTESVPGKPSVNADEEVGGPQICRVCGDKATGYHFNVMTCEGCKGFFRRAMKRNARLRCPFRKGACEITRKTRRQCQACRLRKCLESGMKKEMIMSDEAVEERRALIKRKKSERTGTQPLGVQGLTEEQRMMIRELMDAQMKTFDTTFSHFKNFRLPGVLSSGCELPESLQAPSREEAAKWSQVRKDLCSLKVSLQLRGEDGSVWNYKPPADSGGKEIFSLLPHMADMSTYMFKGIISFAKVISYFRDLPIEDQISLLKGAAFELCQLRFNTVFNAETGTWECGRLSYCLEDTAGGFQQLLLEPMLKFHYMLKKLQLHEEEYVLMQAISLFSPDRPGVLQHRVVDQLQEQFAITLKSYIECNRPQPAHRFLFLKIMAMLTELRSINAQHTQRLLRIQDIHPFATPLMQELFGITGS
Target sequence in this assay (P19793 whole entry partner): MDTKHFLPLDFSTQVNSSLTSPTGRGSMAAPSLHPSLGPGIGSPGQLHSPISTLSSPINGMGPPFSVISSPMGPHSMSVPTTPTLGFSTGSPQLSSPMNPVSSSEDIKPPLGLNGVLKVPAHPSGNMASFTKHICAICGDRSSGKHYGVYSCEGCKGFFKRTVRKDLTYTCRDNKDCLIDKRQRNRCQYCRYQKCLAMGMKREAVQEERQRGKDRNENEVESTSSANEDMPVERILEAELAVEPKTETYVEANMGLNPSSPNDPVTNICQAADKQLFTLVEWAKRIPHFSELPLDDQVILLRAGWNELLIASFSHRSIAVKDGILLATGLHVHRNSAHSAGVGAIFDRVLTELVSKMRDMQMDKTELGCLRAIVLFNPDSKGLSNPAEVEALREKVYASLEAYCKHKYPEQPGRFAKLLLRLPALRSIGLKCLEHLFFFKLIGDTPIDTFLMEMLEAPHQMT

NQO = assay: Liver cytosolic NQO activity; format: in vivo, mice; conditions: female SENCAR mice, 35, 70, 150 mg/kg p.o. 4 days, vs corn oil

For COc1c2ccoc2c(OC)c2oc(=O)ccc12 [isopimpinellin, 5,8-dimethoxypsoralen], the “Increase in hepatic GSTp mRNA, CAR(−/−) mice” value (GSTp mRNA) was no less than 5 fold, the “Increase in hepatic GSTp mRNA, female CAR(+/+) mice” value (GSTp mRNA) was ~ 8 fold and the “GST activity using DCNB as a substrate, liver cytosol” value (GST (DCNB, GST μ)) was “highest increase”. The “P450 3A activity, liver microsomes, dose-response study” value (P450 3A11) was “increased”, the “Increase in P450 3A activity (testosterone), liver microsomes” value (P450 3A11; po, 100 mg/kg) was 3–4 fold and the “Increase in hepatic GSTa1 mRNA, female CAR(−/−) mice” value (GSTa1 mRNA) was ~ 3 fold. The “Increase in hepatic GSTa1 mRNA, male CAR(−/−) mice” value (GSTa1 mRNA) was ~ 8 fold, the “Increase in hepatic GSTa1 mRNA, male and female CAR(+/+) mice” value (GSTa1 mRNA) was 10–11 fold and the EC50 (SXR [1]) was roughly 35 µM. For the same molecule, the “Max (concentration to reach maximal effect), GAL-SXR” value (SXR [1]; CV-1 cells, 18–24 h) was 100,000 nM, the EC50 (SXR [1]; ED50, GAL-SXR activation, CV-1 cells, 18–24 h, luciferase normalized by β-gal) was 35.5 µM and the “Concentration to reach maximal effect, times higher than RIF” value (SXR [1]; GAL-SXR reporter system) was 10 times. For the same molecule, the “P450 content, liver microsomes” value (P450) was “increased”, the EC50 (SXR [2]) was 39.8 µM and the “Max (concentration to reach maximal effect), SXR-DR3” value (SXR [2]; CV-1 cells, full length SXR) was 100,000 nM. For the same molecule, the “Liver cytosolic NQO activity, dose-response study” value (NQO) was “increased at all doses”.

Reference: publication PMC2585982 (Toxicology and applied pharmacology, 2008)
